Assay results as given in ChEMBL document CHEMBL3112450, “Synthesis and in vitro antitumor evaluation of primary amine substituted quinazoline linked benzimidazole” (Bioorg Med Chem Lett, 2014).

Assays:
Format in all cases: functional
RPMI-8226 [1] = experiment: Cytotoxicity against human RPMI8226 cells assessed as cell growth at 10^-7 M after 48 hrs by SRB assay; details: RPMI-8226, 48 h, read-out: Activity
A498 = experiment: Cytotoxicity against human A498 cells assessed as cell growth at 10^-8 M after 48 hrs by SRB assay; details: A498, 48 h, read-out: Activity
HT-29 = experiment: Cytotoxicity against human HT-29 cells assessed as cell growth at 10^-8 M after 48 hrs by SRB assay; details: HT-29, 48 h, read-out: Activity
MDA-MB-231 [2] = experiment: Cytotoxicity against human MDA-MB-231 cells after 48 hrs by SRB assay; details: MDA-MB-231, 48 h
LOX IMVI = experiment: Cytotoxicity against human LOXIMVI cells assessed as cell growth at 10^-8 M after 48 hrs by SRB assay; details: read-out: Activity
SR = experiment: Cytotoxicity against human SR cells assessed as cell growth at 10^-4 M after 48 hrs by SRB assay; details: read-out: Activity
[3] = Cytotoxicity against human OVCAR5 cells assessed as cell growth at 10^-6 M after 48 hrs by SRB assay; details: OVCAR-5, 48 h, read-out: Activity
MDA-MB-231 [4] = experiment: Cytotoxicity against human MDA-MB-231 cells assessed as cell growth at 10^-8 M after 48 hrs by SRB assay; details: MDA-MB-231, 48 h, read-out: Activity
SF-539 = experiment: Cytotoxicity against human SF539 cells after 48 hrs by SRB assay; details: SF-539, 48 h
ACHN [5] = experiment: Cytotoxicity against human ACHN cells assessed as cell growth at 10^-7 M after 48 hrs by SRB assay; details: read-out: Activity
UACC-62 = experiment: Cytotoxicity against human UACC62 cells assessed as cell growth at 10^-4 M after 48 hrs by SRB assay; details: UACC-62, 48 h, read-out: Activity
[6] = Cytotoxicity against human OVCAR4 cells assessed as cell growth at 10^-4 M after 48 hrs by SRB assay; details: OVCAR-4, 48 h, read-out: Activity
[7] = Cytotoxicity against human OVCAR4 cells assessed as cell growth at 10^-8 M after 48 hrs by SRB assay; details: OVCAR-4, 48 h, read-out: Activity
T47D = experiment: Cytotoxicity against human T47D cells assessed as cell growth at 10^-6 M after 48 hrs by SRB assay; details: read-out: Activity
U-251 = experiment: Cytotoxicity against human U251 cells assessed as cell growth at 10^-7 M after 48 hrs by SRB assay; details: U-251, 48 h, read-out: Activity
SK-MEL-2 [8] = experiment: Cytotoxicity against human SK-MEL-2 cells assessed as cell growth at 10^-6 M after 48 hrs by SRB assay; details: SK-MEL-2, 48 h, read-out: Activity
SK-MEL-2 [9] = experiment: Cytotoxicity against human SK-MEL-2 cells after 48 hrs by SRB assay; details: SK-MEL-2, 48 h
MDA-MB-435 = experiment: Cytotoxicity against human MDA-MB-435 cells assessed as cell growth at 10^-4 M after 48 hrs by SRB assay; details: MDA-MB-435, 48 h, read-out: Activity
NCI-H322M = experiment: Cytotoxicity against human NCI-H322M cells assessed as cell growth at 10^-4 M after 48 hrs by SRB assay; details: read-out: Activity
[10] = Cytotoxicity against human Hs578T cells assessed as cell growth at 10^-4 M after 48 hrs by SRB assay; details: Hs-578T, read-out: Activity
PC-3 [11] = experiment: Cytotoxicity against human PC3 cells after 48 hrs by SRB assay; details: PC-3, 48 h
SF-295 [12] = experiment: Cytotoxicity against human SF295 cells assessed as cell growth at 10^-8 M after 48 hrs by SRB assay; details: SF-295, 48 h, read-out: Activity
MCF7 = experiment: Cytotoxicity against human MCF7 cells assessed as cell growth at 10^-6 M after 48 hrs by SRB assay; details: MCF7, 48 h, read-out: Activity
MDA-MB-468 = experiment: Cytotoxicity against human MDA-MB-468 cells assessed as cell growth at 10^-8 M after 48 hrs by SRB assay; details: MDA-MB-468, 48 h, read-out: Activity
BT-549 = experiment: Cytotoxicity against human BT549 cells assessed as cell growth at 10^-6 M after 48 hrs by SRB assay; details: BT-549, 48 h, read-out: Activity
ACHN [13] = experiment: Cytotoxicity against human ACHN cells assessed as cell growth at 10^-8 M after 48 hrs by SRB assay; details: read-out: Activity
OVCAR-3 = experiment: Cytotoxicity against human OVCAR3 cells assessed as cell growth at 10^-7 M after 48 hrs by SRB assay; details: OVCAR-3, 48 h, read-out: Activity
OVCAR-8 = experiment: Cytotoxicity against human OVCAR8 cells assessed as cell growth at 10^-4 M after 48 hrs by SRB assay; details: OVCAR-8, 48 h, read-out: Activity
SF-268 = experiment: Cytotoxicity against human SF268 cells assessed as cell growth at 10^-6 M after 48 hrs by SRB assay; details: SF-268, 48 h, read-out: Activity
HL-60(TB) = experiment: Cytotoxicity against human HL-60(TB) cells after 48 hrs by SRB assay; details: HL-60, 48 h
Malme-3M = experiment: Cytotoxicity against human MALME-3M cells after 48 hrs by SRB assay
SF-295 [14] = experiment: Cytotoxicity against human SF295 cells assessed as cell growth at 10^-7 M after 48 hrs by SRB assay; details: SF-295, 48 h, read-out: Activity
PC-3 [15] = experiment: Cytotoxicity against human PC3 cells assessed as cell growth at 10^-6 M after 48 hrs by SRB assay; details: PC-3, 48 h, read-out: Activity
SK-MEL-2 [16] = experiment: Cytotoxicity against human SK-MEL-2 cells assessed as cell growth at 10^-7 M after 48 hrs by SRB assay; details: SK-MEL-2, 48 h, read-out: Activity
HOP-92 = experiment: Cytotoxicity against human HOP92 cells assessed as cell growth at 10^-4 M after 48 hrs by SRB assay; details: HOP-92, 48 h, read-out: Activity
HCC 2998 = experiment: Cytotoxicity against human HCC2998 cells assessed as cell growth at 10^-7 M after 48 hrs by SRB assay; details: HCC 2998, 48 h, read-out: Activity
RPMI-8226 [17] = experiment: Cytotoxicity against human RPMI8226 cells assessed as cell growth at 10^-6 M after 48 hrs by SRB assay; details: RPMI-8226, 48 h, read-out: Activity

C=CCn1c(C)nc2ccc(Nc3nc(Nc4ccc5nc(C)n(CC=C)c5c4)c4ccccc4n3)cc21
growth at 0.1 µM (RPMI-8226 [1]): 99%
growth at 0.01 µM (A498): 69%
growth at 0.01 µM (HT-29): 102%
GI50 (MDA-MB-231 [2]): 1.34 µM
LC50 (MDA-MB-231 [2]): 5.12 µM
TGI (MDA-MB-231 [2]): 2.62 µM
growth at 0.01 µM (LOX IMVI): 91%
growth at 100 µM (SR): -2%
growth at 1 µM [3]: 94%
growth at 0.01 µM (MDA-MB-231 [4]): 92%
GI50 (SF-539): 1.71 µM
LC50 (concentration giving 50% net cell kill) (SF-539): 5.71 µM
TGI (SF-539): 3.12 µM
growth at 0.1 µM (ACHN [5]): 92%
growth at 100 µM (UACC-62): -65%
growth at 100 µM [6]: -43%
growth at 0.01 µM [7]: 99%
growth at 1 µM (T47D): 80%
growth at 0.1 µM (U-251): 94%
growth at 1 µM (SK-MEL-2 [8]): 107%
GI50 (SK-MEL-2 [9]): 1.96 µM
TGI (SK-MEL-2 [9]): 3.54 µM
growth at 100 µM (MDA-MB-435): -5%
growth at 100 µM (NCI-H322M): -58%
growth at 100 µM [10]: -15%
GI50 (PC-3 [11]): 1.37 µM
TGI (PC-3 [11]): 2.9 µM
growth at 0.01 µM (SF-295 [12]): 94%
growth at 1 µM (MCF7): 85%
growth at 0.01 µM (MDA-MB-468): 93%
growth at 1 µM (BT-549): 86%
growth at 0.01 µM (ACHN [13]): 103%
growth at 0.1 µM (OVCAR-3): 96%
growth at 100 µM (OVCAR-8): -18%
growth at 1 µM (SF-268): 79%
GI50 (HL-60(TB)): 1.86 µM
TGI (HL-60(TB)): 3.72 µM
GI50 (Malme-3M): 1.9 µM
TGI (Malme-3M): 3.68 µM
growth at 0.1 µM (SF-295 [14]): 98%
growth at 1 µM (PC-3 [15]): 71%
growth at 0.1 µM (SK-MEL-2 [16]): 99%
growth at 100 µM (HOP-92): -47%
growth at 0.1 µM (HCC 2998): 101%
growth at 1 µM (RPMI-8226 [17]): 83%

C=CCn1c(C)nc2cc(Nc3nc(Nc4ccc5nc(C)n(CC=C)c5c4)c4ccccc4n3)ccc21
growth at 0.1 µM (RPMI-8226 [1]): 100%
growth at 0.01 µM (A498): 101%
growth at 0.01 µM (HT-29): 103%
GI50 (MDA-MB-231 [2]): 0.205 µM
TGI (MDA-MB-231 [2]): 0.417 µM
growth at 0.01 µM (LOX IMVI): 95%
growth at 100 µM (SR): 2%
growth at 1 µM [3]: 20%
growth at 0.01 µM (MDA-MB-231 [4]): 111%
GI50 (SF-539): 1.1 µM
LC50 (concentration giving 50% net cell kill) (SF-539): 4.79 µM
TGI (SF-539): 2.3 µM
growth at 0.1 µM (ACHN [5]): 103%
growth at 100 µM (UACC-62): -47%
growth at 100 µM [6]: -29%
growth at 0.01 µM [7]: 93%
growth at 1 µM (T47D): -4%
growth at 0.1 µM (U-251): 95%
growth at 1 µM (SK-MEL-2 [8]): 74%
GI50 (SK-MEL-2 [9]): 1.44 µM
TGI (SK-MEL-2 [9]): 3.08 µM
growth at 100 µM (MDA-MB-435): -30%
growth at 100 µM (NCI-H322M): -70%
growth at 100 µM [10]: -21%
GI50 (PC-3 [11]): 0.305 µM
TGI (PC-3 [11]): 1.02 µM
growth at 0.01 µM (SF-295 [12]): 90%
growth at 1 µM (MCF7): -63%
growth at 0.01 µM (MDA-MB-468): 106%
growth at 1 µM (BT-549): 93%
growth at 0.01 µM (ACHN [13]): 105%
growth at 0.1 µM (OVCAR-3): 101%
growth at 100 µM (OVCAR-8): 1%
growth at 1 µM (SF-268): 52%
GI50 (HL-60(TB)): 1.78 µM
TGI (HL-60(TB)): 3.65 µM
GI50 (Malme-3M): 2.27 µM
TGI (Malme-3M): 4.1 µM
growth at 0.1 µM (SF-295 [14]): 93%
growth at 1 µM (PC-3 [15]): 1%
growth at 0.1 µM (SK-MEL-2 [16]): 98%
growth at 100 µM (HOP-92): -84%
growth at 0.1 µM (HCC 2998): 100%
growth at 1 µM (RPMI-8226 [17]): 59%
